Measurements reported in ChEMBL document CHEMBL4342477, “Single Nucleotide Polymorphisms in the Melanocortin His-Phe-Arg-Trp Sequences Decrease Tetrapeptide Potency and Efficacy” (ACS Med Chem Lett, 2020).
Non-standard residues stand in square brackets, D forms with d. Residues, ends and D or L forms follow the SMILES beside them.

Experiments:
Type in all cases: functional, cell-based
Melanocortin receptor 3 = Melanocortin receptor 3 (Mus musculus, UniProt P33033); assay: Agonist activity at mouse melanocortin receptor 3 expressed in HEK293 cells assessed as stimulation of cAMP accumulation incubated for 2 hrs by cAMP Alpha-screen assay
Melanocortin receptor 3, sequence (P33033 whole entry): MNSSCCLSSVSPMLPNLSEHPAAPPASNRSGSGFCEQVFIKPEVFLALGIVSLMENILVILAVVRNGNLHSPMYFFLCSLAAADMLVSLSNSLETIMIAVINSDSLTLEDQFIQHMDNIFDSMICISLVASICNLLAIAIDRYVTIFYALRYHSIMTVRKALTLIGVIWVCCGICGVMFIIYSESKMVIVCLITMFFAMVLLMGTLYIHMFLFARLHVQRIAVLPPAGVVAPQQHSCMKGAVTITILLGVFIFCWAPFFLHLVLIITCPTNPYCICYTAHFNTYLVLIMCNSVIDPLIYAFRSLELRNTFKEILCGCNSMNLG

[1] = biological target: Melanocortin receptor 3 (Mus musculus) (UniProt P33033); assay: Partial agonist activity at mouse melanocortin receptor 3 expressed in HEK293 cells assessed as stimulation of cAMP accumulation incubated for 2 hrs by cAMP Alpha-screen assay relative to NDP-MSH
Melanocortin receptor 3 (Mus musculus), sequence (P33033 whole entry): as above

[2] = biological target: Melanocortin receptor 5 (Mus musculus) (UniProt P41149); assay: Partial agonist activity at mouse melanocortin receptor 5 expressed in HEK293 cells assessed as stimulation of cAMP accumulation incubated for 2 hrs by cAMP Alpha-screen assay relative to NDP-MSH
Melanocortin receptor 5 (Mus musculus), sequence (P41149 whole entry): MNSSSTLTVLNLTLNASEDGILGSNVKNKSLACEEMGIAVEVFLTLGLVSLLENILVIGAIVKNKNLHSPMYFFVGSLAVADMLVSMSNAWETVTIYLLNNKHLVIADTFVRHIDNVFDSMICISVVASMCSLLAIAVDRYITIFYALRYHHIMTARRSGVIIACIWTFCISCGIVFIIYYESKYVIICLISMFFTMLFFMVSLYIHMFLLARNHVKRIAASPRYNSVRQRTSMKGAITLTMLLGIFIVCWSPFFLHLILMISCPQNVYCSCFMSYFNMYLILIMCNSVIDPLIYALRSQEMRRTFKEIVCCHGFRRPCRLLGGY

[3] = biological target: T1, Melanocyte-stimulating hormone receptor (Mus musculus, UniProt Q01727); assay: Agonist activity at mouse melanocortin receptor 1 expressed in HEK293 cells assessed as stimulation of cAMP accumulation incubated for 2 hrs by cAMP AlphaScreen assay
T1 sequence (Q01727 whole entry): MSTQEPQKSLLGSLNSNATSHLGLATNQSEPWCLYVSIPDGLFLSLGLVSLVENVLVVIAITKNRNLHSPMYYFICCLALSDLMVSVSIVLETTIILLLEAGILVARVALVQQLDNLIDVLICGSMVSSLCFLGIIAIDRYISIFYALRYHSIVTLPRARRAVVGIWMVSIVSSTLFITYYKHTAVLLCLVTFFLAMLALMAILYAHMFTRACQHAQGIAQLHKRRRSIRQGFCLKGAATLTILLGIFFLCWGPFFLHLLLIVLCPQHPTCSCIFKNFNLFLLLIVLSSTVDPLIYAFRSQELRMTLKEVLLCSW

[4] = biological target: Melanocortin receptor 4 (Mus musculus) (UniProt P56450); assay: Partial agonist activity at mouse melanocortin receptor 4 expressed in HEK293 cells assessed as stimulation of cAMP accumulation incubated for 2 hrs by cAMP Alpha-screen assay relative to NDP-MSH
Melanocortin receptor 4 (Mus musculus), sequence (P56450 whole entry): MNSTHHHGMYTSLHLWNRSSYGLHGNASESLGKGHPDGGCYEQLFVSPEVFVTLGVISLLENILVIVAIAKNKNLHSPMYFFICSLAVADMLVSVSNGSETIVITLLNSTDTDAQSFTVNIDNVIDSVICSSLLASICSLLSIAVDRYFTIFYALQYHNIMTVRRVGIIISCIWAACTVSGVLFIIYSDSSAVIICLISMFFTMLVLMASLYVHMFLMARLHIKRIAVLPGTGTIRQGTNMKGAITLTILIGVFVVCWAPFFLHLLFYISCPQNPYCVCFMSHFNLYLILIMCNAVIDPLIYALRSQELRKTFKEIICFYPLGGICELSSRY

Melanocortin receptor 4 = Melanocortin receptor 4 (Mus musculus, UniProt P56450); assay: Agonist activity at mouse melanocortin receptor 4 expressed in HEK293 cells assessed as stimulation of cAMP accumulation incubated for 2 hrs by cAMP Alpha-screen assay
Melanocortin receptor 4, sequence (P56450 whole entry): as above

Melanocortin receptor 5 = Melanocortin receptor 5 (Mus musculus, UniProt P41149); assay: Agonist activity at mouse melanocortin receptor 5 expressed in HEK293 cells assessed as stimulation of cAMP accumulation incubated for 2 hrs by cAMP Alpha-screen assay
Melanocortin receptor 5, sequence (P41149 whole entry): as the sequence (P41149 whole entry) above

[5] = biological target: Melanocortin receptor 4 (Mus musculus) (UniProt P56450); assay: Agonist activity at mouse melanocortin receptor 4 expressed in HEK293 cells assessed as fold decrease in potency of stimulation of cAMP accumulation incubated for 2 hrs by cAMP Alpha-screen assay relative to Ac-His-DPhe-Arg-Trp-NH2
[6] = biological target: Melanocortin receptor 5 (Mus musculus) (UniProt P41149); assay: Agonist activity at mouse melanocortin receptor 5 expressed in HEK293 cells assessed as stimulation of cAMP accumulation at 100 uM incubated for 2 hrs by cAMP Alpha-screen assay relative to control
[7] = biological target: Melanocortin receptor 3 (Mus musculus) (UniProt P33033); assay: Agonist activity at mouse melanocortin receptor 3 expressed in HEK293 cells assessed as stimulation of cAMP accumulation at 100 uM incubated for 2 hrs by cAMP Alpha-screen assay relative to control
[8] = biological target: Melanocortin receptor 4 (Mus musculus) (UniProt P56450); assay: Agonist activity at mouse melanocortin receptor 4 expressed in HEK293 cells assessed as fold decrease in potency of stimulation of cAMP accumulation incubated for 2 hrs by cAMP Alpha-screen assay
[9] = biological target: Melanocyte-stimulating hormone receptor (Mus musculus) (UniProt Q01727); assay: Agonist activity at mouse melanocortin receptor 1 expressed in HEK293 cells assessed as fold decrease in potency of stimulation of cAMP accumulation incubated for 2 hrs by cAMP AlphaScreen assay
Melanocyte-stimulating hormone receptor (Mus musculus), sequence (Q01727 whole entry, looked up): as the sequence (Q01727 whole entry) above

[10] = biological target: Melanocyte-stimulating hormone receptor (Mus musculus) (UniProt Q01727); assay: Agonist activity at mouse melanocortin receptor 1 expressed in HEK293 cells assessed as stimulation of cAMP accumulation at 100 uM incubated for 2 hrs by cAMP AlphaScreen assay relative to control
[11] = biological target: T1, Melanocyte-stimulating hormone receptor; assay: Agonist activity at mouse melanocortin receptor 1 expressed in HEK293 cells assessed as stimulation of cAMP accumulation incubated for 6 hrs by beta-galactosidase cAMP assay

SMILES	EC50 (Melanocortin receptor 3)	EC50 [3]	EC50 (Melanocortin receptor 4)	EC50 (Melanocortin receptor 5)	also measured
CC(=O)N[C@@H](Cc1cnc[nH]1)C(=O)N[C@H](Cc1ccccc1)C(=O)N[C@@H](CCCN=C(N)N)C(=O)N[C@@H](Cc1c[nH]c2ccccc12)C(N)=O			21 nM	11 nM	
CC(=O)N[C@@H](Cc1cnc[nH]1)C(=O)N[C@H](Cc1ccccc1)C(=O)N[C@@H](Cc1cnc[nH]1)C(=O)N[C@@H](Cc1c[nH]c2ccccc12)C(N)=O	4000 nM	1300 nM	500 nM	300 nM	Emax [1]: 85%
CC(=O)N[C@@H](Cc1cnc[nH]1)C(=O)N[C@H](Cc1ccccc1)C(=O)N[C@@H](CCCNC(=N)N)C(=O)N[C@@H](CC(C)C)C(N)=O		1600 nM	> 100000 nM		Emax [6]: 40%; Emax [7]: 20%
CC(=O)N[C@@H](Cc1cnc[nH]1)C(=O)N[C@H](C(=O)N[C@@H](CCCNC(=N)N)C(=O)N[C@@H](Cc1c[nH]c2ccccc12)C(N)=O)C(C)C (Ac-HVRW-NH2)	> 100000 nM	> 100000 nM	> 100000 nM	> 100000 nM	
CC(=O)N[C@@H](Cc1cnc[nH]1)C(=O)N[C@H](Cc1ccccc1)C(=O)N[C@@H](CCCNC(=N)N)C(=O)NCC(N)=O	> 100000 nM	1300 nM	> 100000 nM	> 100000 nM	
CC(=O)N[C@@H](Cc1cnc[nH]1)C(=O)N[C@H](Cc1ccccc1)C(=O)N[C@@H](CCCNC(=N)N)C(=O)N[C@@H](CO)C(N)=O		1600 nM	> 100000 nM		Emax [6]: 75%; Emax [7]: 50%
CC(=O)N1CCC[C@H]1C(=O)N[C@H](Cc1ccccc1)C(=O)N[C@@H](CCCN=C(N)N)C(=O)N[C@@H](Cc1c[nH]c2ccccc12)C(N)=O (Ac-P[dF]RW-NH2)		2100 nM	1000 nM	2000 nM	Emax [2]: 80%; Emax [4]: 60%; EC50 [11]: 4000 nM
CC(=O)N[C@@H](Cc1cnc[nH]1)C(=O)N[C@H](Cc1ccccc1)C(=O)N[C@@H](CCCNC(=N)N)C(=O)N[C@@H](Cc1c[nH]c2ccccc12)C(N)=O					Emax [7]: 30%

Continued, in another order:

EC50 (Melanocortin receptor 3)	EC50 [3]	EC50 (Melanocortin receptor 4)	EC50 (Melanocortin receptor 5)	SMILES	also measured
3000 nM	1200 nM	90 nM	400 nM	CC(=O)N[C@@H](Cc1ccc(O)cc1)C(=O)N[C@H](Cc1ccccc1)C(=O)N[C@@H](CCCNC(=N)N)C(=O)N[C@@H](Cc1c[nH]c2ccccc12)C(N)=O (Ac-Y[dF]RW-NH2)	Emax [1]: 50%; Emax [2]: 80%; Emax [4]: 65%
			220 nM	CC(=O)N[C@@H](Cc1c[nH]cn1)C(=O)N[C@@H](Cc1ccccc1)C(=O)N[C@@H](CCCN=C(N)N)C(=O)N[C@@H](Cc1c[nH]c2ccccc12)C(N)=O	
1300 nM	1600 nM	270 nM	270 nM	CC(=O)N[C@@H](CCC(N)=O)C(=O)N[C@H](Cc1ccccc1)C(=O)N[C@@H](CCCNC(=N)N)C(=O)N[C@@H](Cc1c[nH]c2ccccc12)C(N)=O	Emax [1]: 80%; Emax [4]: 80%; fold change (FC) [5]: 10
	90 nM	3800 nM	2000 nM	CC(=O)N[C@@H](Cc1cnc[nH]1)C(=O)N[C@H](Cc1ccccc1)C(=O)N[C@@H](CC(C)C)C(=O)N[C@@H](Cc1c[nH]c2ccccc12)C(N)=O	Emax [4]: 85%; Emax [7]: 25%
6000 nM	400 nM	3100 nM	1700 nM	CC(=O)N[C@@H](Cc1cnc[nH]1)C(=O)N[C@H](Cc1ccccc1)C(=O)N[C@@H](CS)C(=O)N[C@@H](Cc1c[nH]c2ccccc12)C(N)=O	Emax [1]: 85%; fold change (FC) [8]: 140; fold change (FC) [9]: 25
> 100000 nM		> 100000 nM		CC(=O)N[C@@H](Cc1cnc[nH]1)C(=O)N[C@@H](CC(C)C)C(=O)N[C@@H](CCCNC(=N)N)C(=O)N[C@@H](Cc1c[nH]c2ccccc12)C(N)=O (Ac-HLRW-NH2)	Emax [6]: 25%; Emax [10]: 25%
> 100000 nM	900 nM	> 100000 nM		CC(=O)N[C@@H](Cc1cnc[nH]1)C(=O)N[C@H](Cc1ccccc1)C(=O)N[C@@H](CCCNC(=N)N)C(=O)N[C@@H](CCCNC(=N)N)C(N)=O	Emax [6]: 20%
